Nc1cccnc1
solubility (mole fraction) (in ethanol, 283.15 K): 0.438
solubility (mole fraction) (in ethanol, 288.15 K): 0.476
solubility (mole fraction) (in ethanol, 293.15 K): 0.518
solubility (mole fraction) (in ethanol, 298.15 K): 0.566
solubility (mole fraction) (in ethanol, 303.15 K): 0.612
solubility (mole fraction) (in ethanol, 308.15 K): 0.66
solubility (mole fraction) (in ethanol, 313.15 K): 0.71
solubility (mole fraction) (in ethanol, 318.15 K): 0.764
solubility (mole fraction) (in ethanol, 323.15 K): 0.821
solubility (mole fraction) (in toluene, 283.15 K): 0.0297
solubility (mole fraction) (in toluene, 288.15 K): 0.0427
solubility (mole fraction) (in toluene, 293.15 K): 0.0646
solubility (mole fraction) (in toluene, 298.15 K): 0.0971
solubility (mole fraction) (in toluene, 303.15 K): 0.152
solubility (mole fraction) (in toluene, 308.15 K): 0.223
solubility (mole fraction) (in toluene, 313.15 K): 0.313
solubility (mole fraction) (in toluene, 318.15 K): 0.418
solubility (mole fraction) (in toluene, 323.15 K): 0.546

From BigSolDB 2.1
